Target: T1, TACE (Homo sapiens, UniProt P78536)
T1 construct: purchased Immunex
Test: Procedure for Measuring TACE Inhibition
Type: biochemical
Conditions: 1 µM; Examples 110-168
Procedure: Using 96-well black microtiter plates, each well receives a solution composed of 10 µL TACE (Immunex, final concentration 1µg/mL), 70µL Tris buffer, pH 7.4 containing 10% glycerol (final concentration 10 mM), and 10 µL of test compound solution in DMSO (final concentration 1µM, DMSO concentration <1%) and incubated for 10 minutes at room temperature. The reaction is initiated by addition of a fluorescent peptidyl substrate (final concentration 100 µM) to each well and then shaking on a shaker for 5 sec. The reaction is read (excitation 340 nm, emission 420 nm) for 10 min. and the increase in fluorescence over time is plotted as a linear line. The slope of the line is calculated and represents the reaction rate. The linearity of the reaction rate is confirmed (r^2 >0.85). The mean (x±sem) of the control rate is calculated and compared for statistical significance (p<0.05) with drug-treated rates using Dunnett's multiple comparison test.

T1 sequence (P78536 215-824): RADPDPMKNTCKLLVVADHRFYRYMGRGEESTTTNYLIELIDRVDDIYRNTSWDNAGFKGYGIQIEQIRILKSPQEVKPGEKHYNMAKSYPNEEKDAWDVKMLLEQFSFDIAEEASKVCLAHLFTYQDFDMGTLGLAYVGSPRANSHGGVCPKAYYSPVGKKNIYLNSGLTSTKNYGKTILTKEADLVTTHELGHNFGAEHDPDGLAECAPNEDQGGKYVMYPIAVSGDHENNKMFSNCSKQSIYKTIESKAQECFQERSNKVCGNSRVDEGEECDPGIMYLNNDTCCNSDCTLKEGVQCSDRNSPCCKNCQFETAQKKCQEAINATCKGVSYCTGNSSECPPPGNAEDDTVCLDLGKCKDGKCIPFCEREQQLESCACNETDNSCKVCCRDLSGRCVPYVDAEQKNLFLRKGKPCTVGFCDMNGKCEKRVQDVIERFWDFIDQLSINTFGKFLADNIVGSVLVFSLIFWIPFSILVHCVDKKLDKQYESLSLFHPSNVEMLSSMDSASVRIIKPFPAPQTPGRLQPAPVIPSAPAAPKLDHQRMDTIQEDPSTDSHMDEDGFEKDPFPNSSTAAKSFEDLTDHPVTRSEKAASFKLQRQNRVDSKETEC

Compound | TACE % inhibition at 1 µM [%]
(1-Hydroxycarbamoyl-propane-1-sulfonyl)-acetic acid hydroxyamide [Example 120] | 19.9

Same assay, conditions: 1 µM; Examples 169-240

Compound | TACE % inhibition at 1 µM [%]
3-(1-Hydroxycarbamoyl-heptylsulfinyl)-benzoicacid hydroxyamide [Example 188] | 16.2
CCCCCCC(Sc1ccc(OCCCC)cc1)C(=O)NO (stereo not drawn) [Example 200, 2-(4-Butoxy-benzenesulfanyl)-octanoic acid hydroxyamide] | 37.9
3-(1-Hydroxycarbamoyl-heptylsulfanyl)-benzoic acid hydroxyamide [Example 184] | 24.8
Ethanesulfonic acid 4(1-hydroxycarbamoyl-heptylsulfanyl)-hydroxyamide [Example 234] | 18.4
CCCCCCC(Sc1ccc(OCCN2CCNCC2)cc1)C(=O)NO (stereo not drawn) [Example 201, 2-[4-(2-Piperazine-1-yl-ethoxy)-benzenesulfanyl]-octanoic acid hydroxyamide] | 50.9
2,5-Dichloro-thiophene-3-sulfonic acid 4-(1-hydroxycarbamoyl-heptylsulfinyl)-hydroxyamide [Example 236] | 35

Same assay, conditions: Examples 169-240; read-out: TACE IC50

IC50 [nM] | Compound
96.6 | CCCCCCC(Sc1ccc(NCCCN2CCOCC2)cc1)C(=O)NO (stereo not drawn) [Example 225, 2-[4-(3-morpholin-4-yl-propylamino)-phenylsulfanyl]-octanoic acid hydroxyamide]
212 | CCCCCCC(C(=O)NO)[S+]([O-])c1ccc(-c2ccc(Cl)s2)cc1 (stereo not drawn) [Example 222, 2-[4-(5-Chloro-thiophen-2-yl)-benzenesulfinyl]-octanoic acid hydroxyamide]
146 | CCCCCCC(C(=O)NO)[S+]([O-])c1ccc(-c2ccc(Cl)cc2)cc1 (stereo not drawn) [Example 221, 2-(4'-Chloro-biphenyl-4-sulfinyl)-octanoic acid hydroxyamide]
895 | CCCCCCC(C(=O)NO)[S+]([O-])c1ccc(OC2CCN(C)C2)cc1 (stereo not drawn) [Example 215, 2-[4-(1-Methyl-pyrrolidin-3-yloxy)-benzenesulfinyl]-octanoic acid hydroxyamide]
404 | CCCCCCC(C(=O)NO)S(=O)(=O)c1ccc(-c2ccc(Cl)s2)cc1 (stereo not drawn) [Example 224, 2-[4-(5-Chloro-thiophen-2-yl)-benzenesulfonyl]-octanoic acid hydroxyamide]
380 | CCCCCCC(C(=O)NO)S(=O)(=O)c1ccc(OC2CCN(C)C2)cc1 (stereo not drawn) [Example 218, 2-[4-(1-Methyl-pyrrolidin-3-yloxy)-benzenesulfonyl]-octanoic acid hydroxyamide]

Same assay, conditions: read-out: TACE % inhibition at 1 µM; 1 µM; Examples 169-240

inhibition at 1 µM [%] | Compound
114 | CCCCCCC(Sc1ccc(NCCCN2CCOCC2)cc1)C(=O)NO (stereo not drawn) [Example 225, 2-[4-(3-morpholin-4-yl-propylamino)-phenylsulfanyl]-octanoic acid hydroxyamide]
20.7 | CCCCCCC(C(=O)NO)S(=O)(=O)c1ccc(OCCCc2ccccn2)cc1 (stereo not drawn) [Example 211, 2-[4-(3-Pyridin-2-yl-propoxy)-benzenesulfonyl]-octanoic acid hydroxyamide]
-6.3 | CCCCCCC(C(=O)NO)[S+]([O-])c1ccc(OCCCc2ccccn2)cc1 (stereo not drawn) [Example 207, 2-[4-(3-Pyridin-2-yl-propoxy)-benzenesulfinyl]-octanoic acid hydroxyamide]
89.3 | CCCCCCC(C(=O)NO)[S+]([O-])c1ccc(-c2ccc(Cl)s2)cc1 (stereo not drawn) [Example 222, 2-[4-(5-Chloro-thiophen-2-yl)-benzenesulfinyl]-octanoic acid hydroxyamide]
98.9 | CCCCCCC(C(=O)NO)[S+]([O-])c1ccc(-c2ccc(Cl)cc2)cc1 (stereo not drawn) [Example 221, 2-(4'-Chloro-biphenyl-4-sulfinyl)-octanoic acid hydroxyamide]
60.1 | CCCCCCC(C(=O)NO)[S+]([O-])c1ccc(OC2CCN(C)C2)cc1 (stereo not drawn) [Example 215, 2-[4-(1-Methyl-pyrrolidin-3-yloxy)-benzenesulfinyl]-octanoic acid hydroxyamide]
10.6 | CCCCCCC(Sc1ccc(OCCCCCO)cc1)C(=O)NO (stereo not drawn) [Example 202, 2-[4-(5-Hydroxy-pentyloxy)-phenylsulfanyl]-octanoic acid hydroxyamide]
67.7 | CCCCCCC(C(=O)NO)S(=O)(=O)c1ccc(OCc2ccccc2)cc1 (stereo not drawn) [Example 208, 2-(4-Benzyloxy-phenylsulfonyl)-octanoic acid hydroxyamide]
75 | CCCCCCC(C(=O)NO)S(=O)(=O)c1ccc(-c2ccc(Cl)s2)cc1 (stereo not drawn) [Example 224, 2-[4-(5-Chloro-thiophen-2-yl)-benzenesulfonyl]-octanoic acid hydroxyamide]
68.7 | CCCCCCC(C(=O)NO)S(=O)(=O)c1ccc(OC2CCN(C)C2)cc1 (stereo not drawn) [Example 218, 2-[4-(1-Methyl-pyrrolidin-3-yloxy)-benzenesulfonyl]-octanoic acid hydroxyamide]
7.75 | CCCCCCC(C(=O)NO)[S+]([O-])c1ccc(OCc2ccccc2)cc1 (stereo not drawn) [Example 204, 2-(4-Benzyloxy-phenylsulfinyl)-octanoic acid hydroxyamide]
7.3 | CCCCCCC(C(=O)NO)S(=O)(=O)c1ccc(OC(CC)CC)cc1 (stereo not drawn) [Example 219, 2-[4-(1-Ethyl-propoxy)-benzenesulfonyl]-octanoic acid hydroxyamide]

Compound | inhibition at 1 µM [%]
CCCCCCC(C(=O)NO)[S+]([O-])c1ccc(OCCCC)cc1 (stereo not drawn) [Example 205, 2-(4-Butoxy-benzenesulfinyl)-octanoic acid hydroxyamide] | 84
CCCCCCC(C(=O)NO)S(=O)(=O)c1ccc(OCCCC)cc1 (stereo not drawn) [Example 209, 2-(4-Butoxy-benzenesulfonyl)-octanoic acid hydroxyamide] | 31.2

Same assay, conditions: read-out: TACE % inhibition at 1 micromolar

inhibition at 1 µM [%] | Compound
47 | COc1ccc([S+]([O-])C(C(=O)NO)c2ccccc2)cc1 (stereo not drawn) [Example 8, N-Hydroxy-2-(4-methoxy-benzenesulfinyl)-2-phenyl-acetamide]
31 | COc1ccc(S(=O)(=O)C(C)(Cc2ccc(OCCN(C(C)C)C(C)C)cc2)C(=O)NO)cc1 (stereo not drawn) [Example 20, N-Hydroxy-2-(4-methoxy-benzenesulfonyl)-2-methyl-3-[4-(2-N,N-diisopropylamino-ethoxy)-phenyl]-propionamide]
39 | CCN(CC)CCOc1ccc(CC(C)(C(=O)NO)S(=O)(=O)c2ccc(OC)cc2)cc1 (stereo not drawn) [Example 21, N-Hydroxy-2-(4-methoxy-benzenesulfonyl)-2-methyl-3-[4-(2-N,N-diethylamino-ethoxy)-phenyl]-propionamide]
20.3 | COc1ccc(S(=O)(=O)C(Cc2ccccc2)C(=O)NO)cc1 (stereo not drawn) [Example 9, N-Hydroxy-2-(4-methoxy-benzenesulfonyl)-3-phenyl-propionamide]
25.4 | CCN1CCC(C(=O)NO)(S(=O)(=O)c2ccc(OC)cc2)CC1 [Example 95, 1-Ethyl-4-(4-methoxy-benzenesulfonyl)-piperidine-4-carboxylic acid hydroxyamide]
20.2 | COc1ccc(S(=O)(=O)C2(C(=O)NO)CCN(C)CC2)cc1 [Example 97, 1-Methyl-4-(4-methoxy-benzenesulfonyl)-piperidine-4-carboxylic acid hydroxyamide]
7.7 | C=CCC(CC=C)(C(=O)NO)S(=O)(=O)c1ccc(OC)cc1 [Example 58, 2-allyl-2-(4-methoxy-benzenesulfonyl)-pent-4-enoic acid hydroxyamide]
15.5 | COc1ccc(CS(=O)(=O)C(C)(Cc2ccccc2)C(=O)NO)cc1 (stereo not drawn) [Example 41, N-Hydroxy-2-(4-methoxy-phenylmethanesulfonyl)-2-methyl-3-phenyl propionic acid hydroxamide]
17.2 | COc1ccc(S(=O)(=O)C(C)(Cc2cccnc2)C(=O)NO)cc1 (stereo not drawn) [Example 61, N-hydroxy-2-(4-methoxy-benzenesulfonyl)-2-methyl-3-pyridin-3-yl-propionamide]

Compound | inhibition at 1 µM [%]
CCCCOc1ccc(S(=O)(=O)C2(C(=O)NO)CCN(Cc3ccc(F)cc3)CC2)cc1 [Example 100, 1-(4-Fluoro-benzyl)-4-(4-butoxy-benzenesulfonyl)-piperidine-4-carboxylic acid hydroxyamide] | 39.5

Same assay, conditions: read-out: TACE IC 50

IC50 [nM] | Compound
669 | CCCCCCCCC(Cc1cccnc1)(C(=O)NO)S(=O)(=O)c1ccc(OC)cc1 (stereo not drawn) [Example 62, 2-(4-Methoxy-benzenesulfonyl)-2-pyridin-3-ylmethyl-decanoic acid hydroxyamide]
160 | COc1ccc(S(=O)(=O)C(Cc2ccc3ccccc3c2)C(=O)NO)cc1 (stereo not drawn) [Example 40, N-Hydroxy-2-(4-methoxy-benzenesulfonyl)-3-naphthalen-2-yl-propionamide]
197 | COc1ccc(CN2CCC(C(=O)NO)(S(=O)(=O)c3ccc(OC)cc3)CC2)cc1 [Example 101, 4-(4-methoxy-benzenesulfonyl)-1-(4-methoxy-benzyl)-piperidine-4-carboxylic acid hydroxyamide]

Target: MMP 13 (Homo sapiens, UniProt P45452)
Test: MMP 13 inhibition (HTS; method not described)
Type: biochemical
Conditions: read-out: MMP 13 % inhibition at 36 nM (HTS); 36 nM, HTS

inhibition at 0.036 µM [%] | Compound
-6 | CCCCCCC(C(=O)NO)S(=O)(=O)CCc1cccc[n+]1[O-] (stereo not drawn) [Example 183, 2-[2-(1-Oxy-pyridin-2-yl)-ethanesulfonyl]-octanoic acid hydroxyamide]
30 | CCCCCCC(Sc1ccc(OS(=O)(=O)c2ccccc2)cc1)C(=O)NO (stereo not drawn) [Example 232, Benzenesulfonic acid 4-(1-hydroxycarbamoyl-heptylsulfanyl)-phenyl ester]
-45 | CCCCCCC(C(=O)NO)[S+]([O-])CC(=O)Nc1ccc2ccccc2c1 (stereo not drawn) [Example 191, 2-(Naphthalen-2-ylcarbamoylmethanesulfinyl)-octanoic acid hydroxyamide]
28 | CCCCCCC(Sc1nc2ccccc2o1)C(=O)NO (stereo not drawn) [Example 169, 2-(2-Benzooxazol-2-ylsulfanyl)-octanoic acid hydroxyamide]

Compound | inhibition at 0.036 µM [%]
CCCCCCC(C(=O)NO)[S+]([O-])c1ccccn1 (stereo not drawn) [Example 178, 2-(2-Pyridine-2-sulfinyl)-octanoic acid hydroxyamide] | -10

Same assay, conditions: read-out: MMP 13 % inhibition at 0.2 µM (HTS); 0.2 µM, HTS

inhibition at 0.2 µM [%] | Compound
73 | C[S+]([O-])c1ccc([S+]([O-])C(COCc2ccccc2)C(=O)NO)cc1 (stereo not drawn) [Example 147, 3-Benzyloxy-N-hydroxy-2-(4-methanesulfinyl-benzenesulfinyl)-propionamide]
79 | O=C(CCC(C(=O)NO)[S+]([O-])c1ccc(Br)cc1)NO (stereo not drawn) [Example 135, 4-Hydroxycarbamoyl-4-(4-bromo-benzenesulfinyl)-butyric acid hydroxyamide]

Same assay, conditions: read-out: MMP 13 % inhibition at 3.6 mM (HTS)

Compound | inhibition at 3600 µM [%]
CCCCCCC(C(=O)NO)[S+]([O-])c1ccccn1 (stereo not drawn) [Example 178, 2-(2-Pyridine-2-sulfinyl)-octanoic acid hydroxyamide] | 39

Source: EP0970046B1, “N-HYDROXY-2-(ALKYL, ARYL, OR HETEROARYL SULFANYL, SULFINYL OR SULFONYL)-3-SUBSTITUTED ALKYL, ARYL OR HETEROARYLAMIDES AS MATRIX METALLOPROTEINASE INHIBITORS” (Wyeth Holdings Corporation, priority 1997, dated 1998)
